According to paper PMC12692861, “Biotin-Linked Ursolic Acid Conjugates as Selective Anticancer Agents and Target-Identification Tools for Cancer Therapy” (Molecules, 2025):

What was measured:
Test in all cases: Streptavidin pulldown proteomics (LC-MS/MS), 5637 cells
Type in all cases: binding
Conditions in all cases: 5637, 50 µM
[1] = biological target: Elongation factor 1-gamma (EF1γ) (Homo sapiens, UniProt P26641)
Protocol: (§1) We used proteomics to identify potential molecular targets of 5c. A pulldown assay with streptavidin-agarose-coated magnetic beads was performed. Briefly, 5637 and MB49 cells were incubated with 50 µM 5c for 10 min and 1 h. After incubation, the cells were rinsed three times with cold phosphate-buffered saline (PBS), and cell lysates were prepared and clarified by centrifugation to remove cellular debris, including nuclei. The clarified lysates were incubated with streptavidin-coated magnetic beads to selectively bind biotinylated contents. Bound proteins were separated from unbound proteins through thorough bead washing. Proteins attached to the beads were eluted and analyzed on an Orbitrap Fusion Tribrid mass spectrometer (Thermo Scientific, New York, NY, USA) coupled with an Ultimate 3000 nano-UPLC system. Samples were trapped on a PepMap100 C18 trap column (5 µm, 0.3 × 5 mm) and separated on a PepMap RSLC C18 column (2 µm, 75 µm × 150 mm) using a gradient from 2 to 40% acetonitrile with 0.1% formic acid over 120 min at […] and 40 °C. MS data were acquired in positive mode using data-dependent acquisition (DDA), with precursor scans at 120,000 FWHM (400–2000 m/z), and MS/MS scans in top-speed mode (3 s cycle) using HCD fragmentation (NCE 32%). Proteins were identified and quantified based on peptide spectral matches (PSMs), and fold enrichment compared to controls was calculated to evaluate interaction strength.
(§2) The 5637 and MB49 cells were cultured and treated with higher concentrations of 5c (50 µM) for short period of times (10 min & 60 min) followed by whole cell lysis (WCL) preparation of both treated and untreated cells using modified RIPA buffer [NaCl (100mM), TrisCl (20mM, pH 7.4), EDTA (10 mM), TritonX-100 (0.5%), Glycerol (5%), Protease inhibitor cocktail (1x)] with gentle continuous rotation. The protein content of each WCL was estimated using Pierce™ BCA Protein Assay kit (Thermo-Scientific # 23225). The 100 µL of resuspended Dynabeads™ MyOne™ Streptavidin C1 (Invitrogen # 65001) were washed with PBST (PBS with 0.01% Tween™20) in a magnet stand as recommended in the manufacturer’s instructions. The washed beads were incubated with 200 µg of each WCL in separate tubes at room temperature for 2 h in a gentle end-over-end mixing. After incubation, beads were washed 3–5 times with PBST (0.01% Tween-20) on a magnetic stand and beads were decanted by after spinning and magnetization. The samples were stored at −80 °C till further analysis using LC-MS/MS by the Proteomics and Mass Spectrometry Core Laboratory of Augusta University.

[2] = biological target: Receptor of activated protein C kinase 1 (RACK1) (Homo sapiens, UniProt P63244)
Protocol: as §1, §2

[3] = biological target: HSP 90-beta (HSP90β) (Homo sapiens, UniProt P08238)
Sequence of HSP 90-beta (HSP90β) (P08238 whole entry): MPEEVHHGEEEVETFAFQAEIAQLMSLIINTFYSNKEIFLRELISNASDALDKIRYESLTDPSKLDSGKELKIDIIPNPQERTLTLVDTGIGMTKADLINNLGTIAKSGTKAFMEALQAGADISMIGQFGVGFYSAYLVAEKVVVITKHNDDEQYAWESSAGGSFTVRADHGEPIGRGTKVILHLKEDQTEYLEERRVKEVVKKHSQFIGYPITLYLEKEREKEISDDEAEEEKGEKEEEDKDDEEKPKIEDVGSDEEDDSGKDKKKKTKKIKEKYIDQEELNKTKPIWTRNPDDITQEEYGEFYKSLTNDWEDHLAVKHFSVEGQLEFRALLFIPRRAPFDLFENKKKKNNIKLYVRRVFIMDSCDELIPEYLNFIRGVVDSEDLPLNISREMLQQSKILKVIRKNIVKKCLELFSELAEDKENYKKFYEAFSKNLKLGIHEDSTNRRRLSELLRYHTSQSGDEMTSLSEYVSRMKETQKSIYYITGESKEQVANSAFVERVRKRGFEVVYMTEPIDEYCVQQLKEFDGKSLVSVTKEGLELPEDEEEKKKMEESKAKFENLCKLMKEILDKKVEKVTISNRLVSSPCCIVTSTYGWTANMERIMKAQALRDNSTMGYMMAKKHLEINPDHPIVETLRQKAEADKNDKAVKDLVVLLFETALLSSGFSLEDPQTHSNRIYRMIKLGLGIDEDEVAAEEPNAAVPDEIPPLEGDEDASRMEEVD
Protocol: as §1, §2

[4] = biological target: Histone H2B type 1-M (Homo sapiens, UniProt Q99879)
Protocol: as §1, §2

[5] = biological target: Elongation factor 2 (eEF2) (Homo sapiens, UniProt P13639)
Protocol: as §1, §2

[6] = biological target: Elongation factor 1-delta (EF1δ) (Homo sapiens, UniProt P29692)
Sequence of Elongation factor 1-delta (EF1δ) (P29692 whole entry): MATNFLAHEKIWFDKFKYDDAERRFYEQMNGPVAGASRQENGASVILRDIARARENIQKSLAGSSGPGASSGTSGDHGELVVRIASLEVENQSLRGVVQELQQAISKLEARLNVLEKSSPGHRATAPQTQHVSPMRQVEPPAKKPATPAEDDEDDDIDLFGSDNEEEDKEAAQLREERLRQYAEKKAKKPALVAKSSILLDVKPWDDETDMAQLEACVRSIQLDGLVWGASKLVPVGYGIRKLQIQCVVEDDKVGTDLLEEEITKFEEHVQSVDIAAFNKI
Protocol: as §1, §2

[7] = biological target: HSP 90-alpha (HSP90α) (Homo sapiens, UniProt P07900)
Protocol: as §1, §2

[8] = biological target: Rab-like protein 6 (RABL6) (Homo sapiens, UniProt Q3YEC7)
Sequence of Rab-like protein 6 (RABL6) (Q3YEC7 whole entry): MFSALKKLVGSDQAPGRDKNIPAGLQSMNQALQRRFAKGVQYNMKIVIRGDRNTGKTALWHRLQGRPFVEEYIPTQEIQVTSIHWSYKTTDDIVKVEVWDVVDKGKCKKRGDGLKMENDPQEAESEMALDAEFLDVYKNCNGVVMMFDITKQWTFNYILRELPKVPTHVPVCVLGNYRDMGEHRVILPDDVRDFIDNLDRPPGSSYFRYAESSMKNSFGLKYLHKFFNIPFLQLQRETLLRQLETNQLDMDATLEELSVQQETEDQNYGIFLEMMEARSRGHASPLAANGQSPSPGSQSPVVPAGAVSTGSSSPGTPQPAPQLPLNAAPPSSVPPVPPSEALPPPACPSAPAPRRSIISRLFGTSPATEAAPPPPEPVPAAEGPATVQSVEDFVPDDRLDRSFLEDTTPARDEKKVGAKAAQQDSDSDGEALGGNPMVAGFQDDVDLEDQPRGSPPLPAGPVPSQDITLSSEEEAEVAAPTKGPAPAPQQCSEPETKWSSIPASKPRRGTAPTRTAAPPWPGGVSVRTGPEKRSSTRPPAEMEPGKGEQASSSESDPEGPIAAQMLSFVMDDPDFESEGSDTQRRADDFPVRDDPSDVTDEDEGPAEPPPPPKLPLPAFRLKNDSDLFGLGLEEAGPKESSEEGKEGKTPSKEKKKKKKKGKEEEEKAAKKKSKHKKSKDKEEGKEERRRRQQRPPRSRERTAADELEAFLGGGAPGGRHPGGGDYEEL
Protocol: as §1, §2

[9] = biological target: Ribosomal L1 domain-containing protein 1 (RSL1D1) (Homo sapiens, UniProt O76021)
Protocol: as §1, §2

[10] = biological target: T-complex protein 1 subunit theta (Homo sapiens, UniProt P50990)
Sequence of T-complex protein 1 subunit theta (P50990 whole entry, one chain of several): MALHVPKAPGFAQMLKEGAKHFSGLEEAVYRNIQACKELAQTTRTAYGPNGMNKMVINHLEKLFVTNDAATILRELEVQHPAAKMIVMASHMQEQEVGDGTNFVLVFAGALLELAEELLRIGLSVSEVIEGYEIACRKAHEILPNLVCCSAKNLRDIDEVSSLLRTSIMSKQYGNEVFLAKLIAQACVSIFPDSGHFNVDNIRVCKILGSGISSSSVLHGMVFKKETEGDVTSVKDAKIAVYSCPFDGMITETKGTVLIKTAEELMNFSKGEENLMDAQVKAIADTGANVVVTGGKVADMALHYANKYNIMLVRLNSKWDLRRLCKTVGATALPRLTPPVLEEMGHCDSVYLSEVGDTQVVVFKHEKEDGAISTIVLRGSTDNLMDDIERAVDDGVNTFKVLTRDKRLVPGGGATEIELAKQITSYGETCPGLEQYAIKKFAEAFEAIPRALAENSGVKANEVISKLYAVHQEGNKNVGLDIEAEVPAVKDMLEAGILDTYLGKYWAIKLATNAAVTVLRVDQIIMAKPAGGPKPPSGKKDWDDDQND
Protocol: as §1, §2

[11] = biological target: Ras GTPase-activating-like protein IQGAP1 (Homo sapiens, UniProt P46940)
Sequence of Ras GTPase-activating-like protein IQGAP1 (P46940 whole entry): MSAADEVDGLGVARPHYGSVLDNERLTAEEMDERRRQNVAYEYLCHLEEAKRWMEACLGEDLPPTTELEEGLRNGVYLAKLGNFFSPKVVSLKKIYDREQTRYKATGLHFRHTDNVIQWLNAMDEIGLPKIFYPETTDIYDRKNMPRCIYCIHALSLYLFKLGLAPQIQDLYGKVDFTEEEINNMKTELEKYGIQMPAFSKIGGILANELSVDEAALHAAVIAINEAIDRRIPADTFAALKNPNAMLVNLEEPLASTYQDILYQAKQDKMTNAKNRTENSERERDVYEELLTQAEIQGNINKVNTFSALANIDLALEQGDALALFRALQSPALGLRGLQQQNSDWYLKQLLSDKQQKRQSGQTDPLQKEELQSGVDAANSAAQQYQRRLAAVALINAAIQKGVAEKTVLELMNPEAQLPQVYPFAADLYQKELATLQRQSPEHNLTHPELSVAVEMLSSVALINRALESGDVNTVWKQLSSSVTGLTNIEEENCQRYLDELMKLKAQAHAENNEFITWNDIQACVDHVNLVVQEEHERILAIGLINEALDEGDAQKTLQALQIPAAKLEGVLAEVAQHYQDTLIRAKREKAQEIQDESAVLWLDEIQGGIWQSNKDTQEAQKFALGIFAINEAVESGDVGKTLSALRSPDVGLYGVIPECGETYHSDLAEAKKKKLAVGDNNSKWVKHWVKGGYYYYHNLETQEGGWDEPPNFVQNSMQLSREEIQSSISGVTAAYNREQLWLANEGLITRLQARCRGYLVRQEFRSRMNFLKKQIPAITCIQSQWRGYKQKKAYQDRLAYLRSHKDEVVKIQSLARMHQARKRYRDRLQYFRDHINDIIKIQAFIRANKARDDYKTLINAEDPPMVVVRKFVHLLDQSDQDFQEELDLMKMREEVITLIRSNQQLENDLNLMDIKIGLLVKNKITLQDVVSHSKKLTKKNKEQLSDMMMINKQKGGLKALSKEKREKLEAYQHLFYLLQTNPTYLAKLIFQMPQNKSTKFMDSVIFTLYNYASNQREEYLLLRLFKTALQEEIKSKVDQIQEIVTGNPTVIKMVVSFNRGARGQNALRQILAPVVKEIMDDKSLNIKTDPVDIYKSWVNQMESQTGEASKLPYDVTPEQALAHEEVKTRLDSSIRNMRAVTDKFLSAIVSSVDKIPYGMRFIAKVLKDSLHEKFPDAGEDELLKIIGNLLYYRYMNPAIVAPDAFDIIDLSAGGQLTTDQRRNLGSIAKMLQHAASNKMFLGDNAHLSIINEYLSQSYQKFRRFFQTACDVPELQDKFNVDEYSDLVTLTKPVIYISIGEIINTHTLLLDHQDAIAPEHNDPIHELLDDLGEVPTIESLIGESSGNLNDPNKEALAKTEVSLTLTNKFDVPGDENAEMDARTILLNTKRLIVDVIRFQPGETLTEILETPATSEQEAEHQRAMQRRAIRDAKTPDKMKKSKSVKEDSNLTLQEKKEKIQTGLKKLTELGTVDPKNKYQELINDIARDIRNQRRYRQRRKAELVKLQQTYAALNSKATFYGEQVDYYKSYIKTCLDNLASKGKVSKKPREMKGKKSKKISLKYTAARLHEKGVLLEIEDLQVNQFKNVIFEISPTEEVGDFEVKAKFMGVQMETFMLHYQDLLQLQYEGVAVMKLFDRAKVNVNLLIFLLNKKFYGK
Protocol: as §1, §2

[12] = biological target: D-3-phosphoglycerate dehydrogenase (Homo sapiens, UniProt O43175)
Sequence of D-3-phosphoglycerate dehydrogenase (O43175 whole entry): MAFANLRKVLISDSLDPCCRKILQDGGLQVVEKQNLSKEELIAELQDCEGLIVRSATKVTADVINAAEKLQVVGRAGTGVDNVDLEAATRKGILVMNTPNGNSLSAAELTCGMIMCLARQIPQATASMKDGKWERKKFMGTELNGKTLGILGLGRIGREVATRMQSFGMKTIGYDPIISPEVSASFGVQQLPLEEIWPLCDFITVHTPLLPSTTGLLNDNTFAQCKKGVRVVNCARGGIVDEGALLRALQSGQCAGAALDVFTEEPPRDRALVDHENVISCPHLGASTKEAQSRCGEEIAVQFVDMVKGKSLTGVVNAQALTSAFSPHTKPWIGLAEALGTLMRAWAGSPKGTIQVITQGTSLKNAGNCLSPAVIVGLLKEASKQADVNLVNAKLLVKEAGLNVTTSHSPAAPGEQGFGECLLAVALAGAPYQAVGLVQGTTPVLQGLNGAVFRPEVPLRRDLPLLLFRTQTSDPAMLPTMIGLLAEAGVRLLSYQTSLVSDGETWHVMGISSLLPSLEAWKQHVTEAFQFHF
Protocol: as §1, §2

[13] = biological target: ATP synthase subunit O (Homo sapiens, UniProt P48047)
Protocol: as §1, §2

[14] = biological target: Eukaryotic translation initiation factor 5B (eIF5B) (Homo sapiens, UniProt O60841)
Protocol: as §1, §2

[15] = biological target: ATP synthase subunit alpha (Homo sapiens, UniProt P25705)
Protocol: as §1, §2

[16] = biological target: Heterogeneous nuclear ribonucleoprotein U (HNRNPU) (Homo sapiens, UniProt Q00839)
Protocol: as §1, §2

[17] = biological target: Elongation factor 1-beta (EF1β) (Homo sapiens, UniProt P24534)
Sequence of Elongation factor 1-beta (EF1β) (P24534 whole entry): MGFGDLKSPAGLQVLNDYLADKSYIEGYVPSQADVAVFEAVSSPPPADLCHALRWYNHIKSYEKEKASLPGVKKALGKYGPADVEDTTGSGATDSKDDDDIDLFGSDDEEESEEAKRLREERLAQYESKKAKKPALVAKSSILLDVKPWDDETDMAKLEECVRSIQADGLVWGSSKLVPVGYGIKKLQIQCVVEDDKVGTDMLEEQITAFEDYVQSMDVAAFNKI
Protocol: as §1, §2

[18] = biological target: Histone H2A type 2-C (HIST2H2AC) (Homo sapiens, UniProt Q16777)
Protocol: as §1, §2

[19] = biological target: Histone H4 (Homo sapiens, UniProt P62805)
Protocol: as §1, §2

CC1CCC2(C(=O)OCCCCOC(=O)CCCCC3SCC4NC(=O)NC43)CCC3(C)C(=CCC4C5(C)CCC(O)C(C)(C)C5CCC43C)C2C1C [Compound 5c, 4-((5-((3aS,4S,6aR)-2-Oxohexahydro-1H-thieno [3,4-d]imidazol-4-yl)pentanoyl)oxy) butyl 3-hydroxy-urs-12-en-28-oate]
Fold Change 1 h/Ctrl [1]: 6 | Fold Change 10 min/Ctrl [2]: 6 | Fold Change 1 h/Ctrl [2]: 6 | Fold Change 10 min/Ctrl [3]: 93 | Fold Change 1 h/Ctrl [3]: 97 | Fold Change 10 min/Ctrl [4]: 3.16 | Fold Change 1 h/Ctrl [4]: 1.37 | Fold Change 10 min/Ctrl [5]: 44 | Fold Change 1 h/Ctrl [5]: 50 | Fold Change 10 min/Ctrl [6]: 8 | Fold Change 1 h/Ctrl [6]: 7 | Fold Change 10 min/Ctrl [7]: 119 | Fold Change 1 h/Ctrl [7]: 111 | Fold Change 10 min/Ctrl [8]: 1.33 | Fold Change 1 h/Ctrl [8]: 2.67 | Fold Change 10 min/Ctrl [9]: 5 | Fold Change 1 h/Ctrl [9]: 4 | Fold Change 10 min/Ctrl [10]: 14 | Fold Change 1 h/Ctrl [10]: 12 | Fold Change 10 min/Ctrl [11]: 3.5 | Fold Change 1 h/Ctrl [11]: 2.25 | Fold Change 10 min/Ctrl [12]: 15 | Fold Change 1 h/Ctrl [12]: 10 | Fold Change 10 min/Ctrl [13]: 3 | Fold Change 1 h/Ctrl [13]: 3 | Fold Change 10 min/Ctrl [14]: 32 | Fold Change 1 h/Ctrl [14]: 34 | Fold Change 10 min/Ctrl [15]: 1.63 | Fold Change 1 h/Ctrl [15]: 2 | Fold Change 10 min/Ctrl [16]: 4.33 | Fold Change 1 h/Ctrl [16]: 4.33 | Fold Change 10 min/Ctrl [17]: 2.35 | Fold Change 1 h/Ctrl [17]: 2.35 | Fold Change 10 min/Ctrl [18]: 3.48 | Fold Change 1 h/Ctrl [18]: 3.04 | Fold Change 10 min/Ctrl [19]: 13.23 | Fold Change 1 h/Ctrl [19]: 11.08
